Measurements reported in patent US12030888B2, “Himastatin derivatives, and processes of preparation thereof, and uses thereof” (priority 2021, dated 2024).
In brackets after ≈: the same amount, converted by molar mass. Like-named read-outs stand apart in the source and are kept apart here. Numbered stars: 1 amine (or outer) side, 2 acyl side, 3 side chain; on linkers, the order of the positions; unused ones are H or OH. Square brackets hold non-standard residues; d marks the D form. Peptide text beside a SMILES is read from it. X1 = O=C([C@@H]1C[C@@]2(O)c3ccccc3N[C@H]2N1[*:1])[*:2]; X2 = O=C([C@H]1C[C@]2(O)c3ccccc3N[C@@H]2N1[*:1])[*:2]; X3 = O=C([C@@H]1C[C@H](O)CNN1[*:1])[*:2]; dPiz(5R-OH) = O=C(O)[C@H]1C[C@@H](O)CNN1; Lys(N3) = [N-]=[N+]=NCCCC[C@H](N)C(=O)O; NMeV = CN[C@H](C(=O)O)C(C)C; dHiv = CC(C)[C@@H](O)C(=O)O; Hiv = CC(C)[C@H](O)C(=O)O

Experiments:
[1] = tested on: Vancomycin-Sensitive E. faecalis (T7); assay type: cell-based, Enterococcus faecalis; conditions: Vancomycin-Sensitive (T7)
Description: (§1) Bacillus subtilis subsp. spizizenii (ATCC 6633) and Streptomyces himastatinicus (ATCC 53653) were obtained from the American Type Culture Collection (ATCC). Methicillin-resistant and methicillin-susceptible Staphylococcus aureus (Newman), and vancomycin-resistant (V583) and vancomycin-susceptible (T7) Enterococcus faecalis were obtained from the lab of Dr. Roby P. Bhattacharyya (Massachusetts General Hospital).^6 B. subtilis was grown in brain-heart infusion (BHI) medium at 37° C., S. himastatinicus was grown in tryptone-yeast extract broth (ISP medium 2) at 28° C., E. faecalis was grown in Todd-Hewitt broth, and all other organisms were grown in lysogeny broth (LB) medium at 37° C.
(§2) Minimum inhibitory concentration (MIC) was determined using the broth microdilution method. 20-fold stocks of compound in DMSO were diluted 10-fold in MHB medium and 100 μL of each were added to the first well of a 96-well plate. 50 μL of the first well was then serially diluted through 50 μL MHB medium in wells 2-11. To prepare the bacterial culture, an overnight culture was diluted in MHB until the turbidity matched that of McFarland standard 0.5. Then, the culture was diluted 1:100 and added to wells 1-11, resulting in 2-fold dilutions of antibiotic beginning at 64 μg/mL and a final inoculum of 5×10^5 cfu/mL. 100 μL of MHB medium was added to well 12 as a sterility control, and a row containing no antibiotic was used as a growth control. The plate was incubated at the organism's respective growth temperature overnight (B. subtilis) or 72 h (S. himastatinicus) and the MIC was determined using OD600.
(§3) Minimum inhibitory concentration (MIC) was determined using the broth microdilution method.^7 20-fold (1.28 mg/mL) stocks of compound in dimethylsulfoxide, stored as frozen (−80° C.) 30-μL aliquots, were diluted 10-fold in Mueller Hinton broth (MHB) and a 100-μL sample of each was added to the first well of a 96-well plate. A 50-μL sample of the first well was then serially diluted two-fold through 50-μL NMB medium in wells 2-11. A bacterial culture was prepared from a frozen (−80° C.) stock in the organism's respective growth medium and grown overnight. The culture was then diluted in MHB until the turbidity matched that of McFarland standard 0.5 by measuring the optical density at 600 nm (1×10^8 cfu/mL). Then, the culture was diluted 1:100 and a 50-μL aliquot was added to wells 1-11, resulting in 2-fold dilutions of antibiotic from 64 μg/mL down to 0.0625 μg/mL and a final inoculum of 5×10^5 cfu/mL. A 100-μL aliquot of MHB medium was added to well 12 as a sterility control, and a row containing no antibiotic was used as a growth control. The plate was incubated at the organism's respective growth temperature overnight or 72 h (S. himastatinicus). The MIC was determined by observing the well density by eye and, with the exception of S. himastatinicus which grows in solid colonies in media, was confirmed by measuring the optical density of each well at 600 nm. At least two assays were conducted for each organism on identical lots of compound. No degradation of compound stocks in dimethylsulfoxide was observed by LC-MS analysis after being subjected to multiple freeze-thaw cycles.

[2] = tested on: Methicillin-Sensitive S. aureus (Newman); assay type: cell-based, Staphylococcus aureus; conditions: Newman
Description: as §1, §2, §3

[3] = tested on: Vancomycin-Resistant Enterococcus faecalis (V583); assay type: cell-based; conditions: Vancomycin-Resistant (V583)
Description: as §1, §2, §3

[4] = tested on: Methicillin-Resistant Staphylococcus aureus; assay type: cell-based; conditions: Methicillin-Resistant
Description: as §1, §2, §3

[5] = tested on: Streptomyces himastatinicus (ATCC 53653); assay type: cell-based; conditions: ATCC 53653, 72 h
Description: as §1, §2, §3

[6] = tested on: Bacillus subtilis (ATCC 6633); assay type: cell-based; conditions: for MIC (μg/mL) B. subtilis: ATCC 6633; for MIC in Bacillus subtilis: text and figure legend
Description: as §1, §2, §3

Gram-positive bacteria = assay type: cell-based; conditions: relative to (−)-himastatin (1) where a derivative
Description: as §1, §2, §3

Row | SMILES | MIC (μg/mL) VSE faecalis [1] | MIC (μg/mL) MSSA [2] | MIC (μg/mL) VRE faecalis [3] | MIC (μg/mL) MRSA [4] | MIC (μg/mL) S. himastatinicus [5] | MIC (μg/mL) B. subtilis [6] | antibiotic activity (in words) (Gram-positive bacteria) | antibiotic activity (in words) (Gram-positive bacteria; listed as (−)-19) | MIC in Bacillus subtilis [6] | MIC in Bacillus subtilis ([6]; listed as TAMRA-himastatin)
1 | CC(C)C[C@H]1NC(=O)[C@@H]2C[C@H](O)CNN2C(=O)[C@@H](C(C)C)OC(=O)[C@H](C(C)C)NC(=O)[C@H]2C[C@]3(O)c4ccccc4N[C@@H]3N2C(=O)[C@H]([C@@H](C)O)NC1=O [(−)-6, ent-himastatin monomer] (cyclo([dL]T[X2]V[dHiv][X3])) | >64 µg/mL | >64 µg/mL | >64 µg/mL | >64 µg/mL | 8 µg/mL (≈ 10.8 µM) | >64 µg/mL | – | – | – | –
2 | CC(C)C[C@@H]1NC(=O)[C@H]2C[C@@H](O)CNN2C(=O)[C@H](C(C)C)OC(=O)[C@@H](C(C)C)NC(=O)[C@@H]2C[C@@]3(O)c4ccccc4N[C@H]3N2C(=O)[C@@H]([C@H](C)O)NC1=O [(+)-6, Himastatin Monomer, reference compound] (cyclo([Hiv][dPiz(5R-OH)]L[dT][X1][dV])) | >64 µg/mL | >64 µg/mL | >64 µg/mL | >64 µg/mL | >64 µg/mL | >64 µg/mL | inactive | – | – | –
3 | CC(C)C[C@@H]1NC(=O)[C@H]2C[C@@H](O)CNN2C(=O)[C@H](C(C)C)N(C)C(=O)[C@@H](C(C)C)NC(=O)[C@@H]2C[C@@]3(O)c4cc(-c5ccc6c(c5)[C@]5(O)C[C@H]7C(=O)N[C@H](C(C)C)C(=O)N(C)[C@@H](C(C)C)C(=O)N8NC[C@H](O)C[C@@H]8C(=O)N[C@@H](CC(C)C)C(=O)N[C@H]([C@H](C)O)C(=O)N7[C@@H]5N6)ccc4N[C@H]3N2C(=O)[C@@H]([C@H](C)O)NC1=O [(−)-28, Himastatin N-Methyl Lactam Derivative] | >64 µg/mL | >64 µg/mL | >64 µg/mL | >64 µg/mL | >64 µg/mL | >64 µg/mL | decreasing antibiotic activity | – | – | –
4 | CC(C)C[C@@H]1NC(=O)[C@H]2CCCN2C(=O)[C@H](C(C)C)OC(=O)[C@@H](C(C)C)NC(=O)[C@@H]2C[C@@]3(O)c4ccccc4N[C@H]3N2C(=O)[C@@H]([C@H](C)O)NC1=O [(+)-29, Proline Cyclic Depsihexapeptide] (cyclo([Hiv][dP]L[dT][X1][dV])) | >64 µg/mL | >64 µg/mL | >64 µg/mL | >64 µg/mL | >64 µg/mL | >64 µg/mL | – | – | – | –
5 | CC(C)C[C@@H]1NC(=O)[C@H]2C[C@@H](O)CNN2C(=O)[C@H](C(C)C)NC(=O)[C@@H](C(C)C)NC(=O)[C@@H]2C[C@@]3(O)c4ccccc4N[C@H]3N2C(=O)[C@@H]([C@H](C)O)NC1=O [(+)-25, Cyclic Hexapeptide] (cyclo(L[dT][X1][dV]V[dPiz(5R-OH)])) | >64 µg/mL | >64 µg/mL | >64 µg/mL | >64 µg/mL | >64 µg/mL | >64 µg/mL | – | – | – | –
6 | CC(C)[C@@H]1OC(=O)[C@@H](C(C)C)NC(=O)[C@@H]2C[C@@]3(O)c4cc(-c5ccc6c(c5)[C@]5(O)C[C@H]7C(=O)N[C@H](C(C)C)C(=O)O[C@@H](C(C)C)C(=O)N8NC[C@H](O)C[C@@H]8C(=O)N[C@@H](CCCCN=[N+]=[N-])C(=O)N[C@H]([C@H](C)O)C(=O)N7[C@@H]5N6)ccc4N[C@H]3N2C(=O)[C@@H]([C@H](C)O)NC(=O)[C@H](CCCCN=[N+]=[N-])NC(=O)[C@H]2C[C@@H](O)CNN2C1=O [(−)-32, Himastatin ε-Azidolysine Derivative] | 0.5 µg/mL (≈ 0.319 µM) | 1 µg/mL (≈ 0.638 µM) | 1 µg/mL (≈ 0.638 µM) | 2 µg/mL (≈ 1.28 µM) | 8 µg/mL (≈ 5.1 µM) | 2 µg/mL (≈ 1.28 µM) | essentially no impact on the antibiotic activity | – | – | –
7 | CC(C)C[C@@H]1NC(=O)[C@H]2CCCN2C(=O)[C@H](C(C)C)OC(=O)[C@@H](C(C)C)NC(=O)[C@@H]2C[C@@]3(O)c4cc(-c5ccc6c(c5)[C@]5(O)C[C@H]7C(=O)N[C@H](C(C)C)C(=O)O[C@@H](C(C)C)C(=O)N8CCC[C@@H]8C(=O)N[C@@H](CC(C)C)C(=O)N[C@H]([C@H](C)O)C(=O)N7[C@@H]5N6)ccc4N[C@H]3N2C(=O)[C@@H]([C@H](C)O)NC1=O [(−)-30, Himastatin Proline Derivative] | >64 µg/mL | >64 µg/mL | >64 µg/mL | >64 µg/mL | >64 µg/mL | >64 µg/mL | complete abolishment of antibiotic activity | antibiotic activity was completely abolished | – | –
8 | CC(C)[C@@H]1OC(=O)[C@@H](C(C)C)NC(=O)[C@@H]2C[C@@]3(O)c4ccccc4N[C@H]3N2C(=O)[C@@H]([C@H](C)O)NC(=O)[C@H](CCCCN=[N+]=[N-])NC(=O)[C@H]2C[C@@H](O)CNN2C1=O [(+)-31, Azido Cyclic Depsihexapeptide] (cyclo([Hiv][dPiz(5R-OH)][Lys(N3)][dT][X1][dV])) | >64 µg/mL | >64 µg/mL | >64 µg/mL | >64 µg/mL | >64 µg/mL | >64 µg/mL | – | – | – | –
9 | CC(C)C[C@@H]1NC(=O)[C@H]2C[C@@H](O)CNN2C(=O)[C@H](C(C)C)OC(=O)[C@@H](C(C)C)NC(=O)[C@@H]2C[C@@]3(O)c4cc(-c5ccc6c(c5)[C@]5(O)C[C@H]7C(=O)N[C@H](C(C)C)C(=O)O[C@@H](C(C)C)C(=O)N8NC[C@H](O)C[C@@H]8C(=O)N[C@@H](CCCCNC(=O)c8ccc9c(c8)C(=O)OC98c9ccc(N(C)C)cc9Oc9cc(N(C)C)ccc98)C(=O)N[C@H]([C@H](C)O)C(=O)N7[C@@H]5N6)ccc4N[C@H]3N2C(=O)[C@@H]([C@H](C)O)NC1=O [(−)-25, TAMRA Himastatin Heterodimer] | – | – | – | – | – | – | – | – | 6 µg/mL (≈ 3.14 µM) | ~8 µg/mL (≈ 4.18 µM)
10 | CC(C)C[C@@H]1NC(=O)[C@H]2C[C@@H](O)CNN2C(=O)[C@H](C(C)C)N(C)C(=O)[C@@H](C(C)C)NC(=O)[C@@H]2C[C@@]3(O)c4ccccc4N[C@H]3N2C(=O)[C@@H]([C@H](C)O)NC1=O [(+)-27, N-Methyl Cyclic Hexapeptide] (cyclo(L[dT][X1][dV][NMeV][dPiz(5R-OH)])) | >64 µg/mL | >64 µg/mL | >64 µg/mL | >64 µg/mL | >64 µg/mL | >64 µg/mL | – | – | – | –
